Calls of active or inactive are those of the source. No cut-off for these calls is given here.
Columns and labels:
[1] = Cytotoxicity against human WI26 cells assessed as reduction in cell viability measured after 72 hrs by MTT assay
A549 [2] = test: cells; settings: Homo sapiens, A549, 72 h
Description: Antiproliferative activity against human A549 cells measured after 72 hrs by MTT assay

A549 [3] = test: Antiproliferative activity against human A549 cells stably expressing AIMP2 DX2 isoform measured after 72 hrs by MTT assay; assay type: functional, cell-based
NCI-H460 [4] = test: Antitumor activity against human H460 cells xenografted in BALB/c SLC nu/nu mouse assessed as reduction in tumor volume at 50 mg/kg, ip administered every other day for 15 days and measured 4 times during compound dosing; assay type: functional, organism-based
NCI-H460 [5] = test: Antitumor activity against human H460 cells xenografted in BALB/c SLC nu/nu mouse assessed as reduction in tumor weight at 50 mg/kg, ip administered every other day for 15 days and measured post-last dose; assay type: functional, organism-based
A549 [6] = settings: Homo sapiens, 5 uM
Description: Inhibition of LgBiT-tagged PRKACA-SmBiT-tagged PRKAR2A (unknown origin) protein-protein interaction expressed in human A549 cells at 5 uM measured after 4 hrs by luminescence assay

NCI-H460 [7] = test: Cytotoxicity against human NCI-H460 3D spheroid cells assessed as reduction in cell viability measured after 72 hrs by Celltiter-glo assay
[8] = Toxicity in human H460 cells xenografted BALB/c SLC nu/nu mouse assessed as change in body weight at 50 mg/kg, ip administered every other day for 15 days and measured 4 times during compound dosing; settings: in vivo, 360 h
[9] = biological target: T1, Aminoacyl tRNA synthase complex-interacting multifunctional protein 2 (Homo sapiens, UniProt Q13155); test: Inhibition of nanoluciferase-tagged AIMP2 (unknown origin) expressed in human A549 cells measured after 4 hrs by luminescence assay; assay type: cell-based
T1 sequence (Q13155 whole entry): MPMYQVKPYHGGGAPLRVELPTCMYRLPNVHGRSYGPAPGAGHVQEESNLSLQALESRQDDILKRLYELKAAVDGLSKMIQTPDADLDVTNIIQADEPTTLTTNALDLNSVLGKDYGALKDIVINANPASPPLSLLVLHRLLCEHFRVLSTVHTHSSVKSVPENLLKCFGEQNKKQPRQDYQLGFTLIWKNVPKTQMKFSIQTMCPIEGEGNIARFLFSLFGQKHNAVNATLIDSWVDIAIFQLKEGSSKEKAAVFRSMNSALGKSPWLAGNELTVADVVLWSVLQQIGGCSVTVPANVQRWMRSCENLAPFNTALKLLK

[10] = biological target: Aminoacyl tRNA synthase complex-interacting multifunctional protein 2 (Homo sapiens, UniProt Q13155); test: Inhibition of nanoluciferase-tagged AIMP2 DX2 isoform (unknown origin) expressed in human A549 cells measured after 4 hrs by luminescence assay; assay type: cell-based

EC50 (A549 [2]) [µM] | IC50 [9] [µM] | IC50 [10] [µM] | Structure (SMILES) | EC50 [1] [µM] | Activity (A549 [3]) | Activity (NCI-H460 [4]) | Activity (NCI-H460 [5]) | inhibition (A549 [6]) | Activity (NCI-H460 [7]) | Activity [8]
14.2 | – | – | Cc1ccc(S(=O)(=O)N[C@@H](Cc2c[nH]c3ccccc23)C(=O)Nc2ccc(N3CCOCC3)cc2)cc1 | > 100 | – | – | – | – | – | –
1.2 | – | – | COc1ccc(-c2csc(NC(=O)[C@H](Cc3c[nH]c4ccccc34)NS(=O)(=O)c3ccc(C)cc3)n2)cc1 | > 100 | Active | Active | Active | inactive | Dose-dependent effect | Non-Toxic
40.8 | > 100 | 40.1 | Cc1ccc(S(=O)(=O)N[C@@H](CC(C)C)C(=O)N2CCOCCOCCOCC2)cc1 | > 100 | – | – | – | – | – | –

From ChEMBL document CHEMBL4354880, “Synthesis and Structure-Activity Relationships of Arylsulfonamides as AIMP2-DX2 Inhibitors for the Development of a Novel Anticancer Therapy” (J Med Chem, 2020)
